Experiment [1] deals with T1, Human PD-L1/PD-1 (Homo sapiens, UniProt Q9NZQ7).
T1 construct: made in house; host or cells: HEK293T
Put plainly: HTRF PD-1-Ig/PD-L1-His binding assay (human PD-L1). The conditions noted are these: cluster symbol; read-out: HTRF IC50 cluster. The gist of the method:
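Readout: time-resolved FRET between Eu cryptate-labeled anti-Ig (1 nM final) and APC-labeled anti-His (20 nM final) antibodies. These detect interaction of Fc-fused PD-1 with His-tagged human PD-L1 in dPBS containing 0.1% BSA and 0.05% Tween-20.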
A general note: TR-FRET usually uses a lanthanide donor and a delayed reading to cut background.

For experiment [2], the target named is T2, LK35.2-hPD-L1 cells / PE-labeled PD-1-Ig (Homo sapiens, UniProt Q9NZQ7).
T2 construct: expressed in transfected cells; host or cells: LK35.2 mouse B cell line
T2 sequence (Q9NZQ7 19-290): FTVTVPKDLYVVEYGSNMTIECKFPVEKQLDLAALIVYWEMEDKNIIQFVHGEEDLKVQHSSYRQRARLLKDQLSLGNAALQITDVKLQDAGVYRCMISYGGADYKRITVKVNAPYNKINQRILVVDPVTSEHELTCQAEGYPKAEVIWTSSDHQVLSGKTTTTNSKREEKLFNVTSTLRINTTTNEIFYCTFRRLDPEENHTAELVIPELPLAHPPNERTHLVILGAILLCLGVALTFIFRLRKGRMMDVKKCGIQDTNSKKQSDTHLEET
Kind of experiment: LK35.2-hPD-L1 cell binding high-content screening assay. It counts as cell-based. The conditions noted are these: cluster symbol, read-out: CBA IC50 cluster. The gist of the method:
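Using overnight-cultured LK35.2-hPD-L1 mouse B cells, compound was co-incubated with phycoerythrin-tagged human PD-1-Ig (final 1 nM) at 37 °C for one hour. Unbound label was removed by triple dPBS washing prior to high-content image acquisition and analysis.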

[3] abbreviates: cell line of CBA not given (LK35.2-hPD-L1 or 293T-hPD-L1).
Setting [4] is: cell binding assay, cell line not given.

Molecules are shown by their SMILES. Where two headings read alike, the source gives them in different places. Starred links: 1 amine or outer side, 2 acyl side, 3 side chain; linkers in the order of their positions; H or OH if unused. Positions of bridges follow the written chain, without caps; N, C: chain ends. Non-standard residues stand in square brackets, D forms with d. Residues, ends and D or L forms follow the SMILES beside them. ξ: configuration not given here. X7 = COc1ccc(-c2[nH]c3ccccc3c2C[C@H](N[*:1])C(=O)[*:2])cc1; Tyr(3,5-Br2) = N[C@@H](Cc1cc(Br)c(O)c(Br)c1)C(=O)O; Phe(4-CH2NH2) = NCc1ccc(C[C@H](N)C(=O)O)cc1; Phe(4-Me) = Cc1ccc(C[C@H](N)C(=O)O)cc1; Hyp = O=C(O)[C@@H]1C[C@@H](O)CN1; NMeF = CN[C@@H](Cc1ccccc1)C(=O)O; NMeNle = CCCC[C@H](NC)C(=O)O; NMeM = CN[C@@H](CCSC)C(=O)O; ξR = N=C(N)NCCCC(N)C(=O)O; NMeA = CN[C@@H](C)C(=O)O; Orn = NCCC[C@H](N)C(=O)O; Dap = NC[C@H](N)C(=O)O; ξC = NC(CS)C(=O)O; Sar = CNCC(=O)O

T1 sequence (Q9NZQ7 with tags, fused parts or gaps): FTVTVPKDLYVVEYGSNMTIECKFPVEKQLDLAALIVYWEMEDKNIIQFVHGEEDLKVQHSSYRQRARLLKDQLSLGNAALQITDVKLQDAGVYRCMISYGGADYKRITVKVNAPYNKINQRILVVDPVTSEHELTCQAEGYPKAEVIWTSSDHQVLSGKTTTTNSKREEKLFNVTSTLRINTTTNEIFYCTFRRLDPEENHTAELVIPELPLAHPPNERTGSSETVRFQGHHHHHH

Usually IC50 stands for the concentration needed to halve the response being measured. For `CCCC[C@H]1C(=O)N(C)CC(=O)N[C@@H](CC(=O)O)C(=O)N[C@@H](C(C)C)C(=O)N[C@@H](Cc2ccc(C)cc2)C(=O)N[C@@H](Cc2ccc(O)cc2)C(=O)N(C)CC(=O)N[C@@H](Cc2c[nH]c3ccccc23)C(=O)N[C@@H](Cc2ccc(O)cc2)C(=O)N[C@@H](CC(C)C)C(=O)N[C@H](C(=O)NCC(N)=O)CSCC(=O)N[C@@H](Cc2ccccc2)C(=O)N(C)[C@@H](Cc2ccccc2)C(=O)N1C` [Example 3135] ({CH2CO}-F[NMeF][NMeNle][Sar]DV[Phe(4-Me)]Y[Sar]WYLCG-NH2; thioether N-13), the IC50 was above 30.5 nM in experiment [1] and above 74.3 nM in experiment [2] (setting [3]).

For the compound `CCCC[C@H]1C(=O)N(C)CC(=O)N[C@@H](CC(=O)O)C(=O)N[C@@H](C(C)C)C(=O)N(C)[C@@H](Cc2ccccc2)C(=O)N[C@@H](Cc2cc(Br)c(O)c(Br)c2)C(=O)N(C)CC(=O)N[C@@H](Cc2c[nH]c3ccccc23)C(=O)N[C@@H](Cc2ccc(O)cc2)C(=O)N[C@@H](CC(C)C)C(=O)N[C@H](C(=O)NCC(N)=O)CSCC(=O)N[C@@H](Cc2ccccc2)C(=O)N(C)[C@@H](Cc2ccccc2)C(=O)N1C` [Example 3113] ({CH2CO}-F[NMeF][NMeNle][Sar]DV[NMeF][Tyr(3,5-Br2)][Sar]WYLCG-NH2; thioether N-13), the IC50 was 6.76 to 30.3 nM in experiment [1] and 4.78 to 72.9 nM in experiment [2] (setting [3]).

Take `CCCC[C@H]1C(=O)N(C)[C@@H](CCCC)C(=O)N[C@@H](CCCNC(=N)N)C(=O)N[C@H](C(=O)NCC(=O)O)CSCC(=O)N[C@@H](Cc2ccccc2)C(=O)N(C)[C@@H](C)C(=O)N[C@@H](CC(N)=O)C(=O)N2CCC[C@H]2C(=O)N[C@@H](Cc2cnc[nH]2)C(=O)N[C@@H](CC(C)C)C(=O)N(C)CC(=O)N[C@@H](Cc2c[nH]c3ccccc23)C(=O)N[C@@H](CO)C(=O)N[C@@H](Cc2c[nH]c3ccccc23)C(=O)N1C` [Example 1076] ({CH2CO}-F[NMeA]NPHL[Sar]WSW[NMeNle][NMeNle]RCG-OH; thioether N-14): the concentration for half-maximal inhibition (IC50) was 6.76 to 30.3 nM in experiment [1] and 4.78 to 72.9 nM in experiment [2] (setting [3]).

As for `CCCC[C@H]1C(=O)N(C)[C@@H](CCCC)C(=O)N[C@@H](CCCNC(=N)N)C(=O)NC(C(=O)N[C@@H](CO)C(N)=O)CSCC(=O)N[C@@H](Cc2ccc(O)cc2)C(=O)N(C)[C@@H](C)C(=O)N[C@@H](CC(N)=O)C(=O)N2CCC[C@H]2C(=O)N[C@@H](Cc2cnc[nH]2)C(=O)N[C@@H](CO)C(=O)N2CCC[C@H]2C(=O)N[C@@H](Cc2c[nH]c3ccccc23)C(=O)N[C@@H](CO)C(=O)N[C@@H](Cc2c[nH]c3ccccc23)C(=O)N1C` (some centres unmarked) [Example 9077] ({CH2CO}-Y[NMeA]NPHSPWSW[NMeNle][NMeNle]R[ξC]S-NH2; thioether N-14), the results for the half-inhibitory concentration (IC50) in experiment [1] and in experiment [2] (setting [4]) were 6.76 to 30.3 nM and 4.78 to 72.9 nM, respectively.

On to `CCCC[C@H]1C(=O)N(C)[C@@H](CCCC)C(=O)N[C@@H](CCC(=O)O)C(=O)N[C@H](C(=O)NCC(N)=O)CSCC(=O)N[C@@H](Cc2ccc(O)cc2)C(=O)N(C)[C@@H](C)C(=O)N[C@@H](CCC(=O)O)C(=O)N2CCC[C@H]2C(=O)N[C@@H](Cc2c[nH]cn2)C(=O)N[C@@H](CCCN)C(=O)N2C[C@H](O)C[C@H]2C(=O)N[C@@H](Cc2c[nH]c3ccccc23)C(=O)N[C@@H](CCCCN)C(=O)N[C@@H](Cc2c[nH]c3ccccc23)C(=O)N1C` [Example 5138] ({CH2CO}-Y[NMeA]EPH[Orn][Hyp]WKW[NMeNle][NMeNle]ECG-NH2; thioether N-14), for which the 50% inhibitory concentration (IC50) in experiment [1] fell in the range of 0.385 to 6.74 nM; in experiment [2] (setting [4]) it was 0.158 to 4.71 nM.

For `CCCC[C@H]1C(=O)N(C)CC(=O)N[C@@H](CC(=O)O)C(=O)N[C@@H](C(C)C)C(=O)N(C)[C@@H](Cc2ccccc2)C(=O)N[C@@H](Cc2ccc(O)cc2)C(=O)N(C)CC(=O)N[C@@H](Cc2c[nH]c3ccccc23)C(=O)N[C@@H](Cc2ccc(O)cc2)C(=O)N[C@@H](Cc2ccc(CN)cc2)C(=O)N[C@H](C(=O)NCC(N)=O)CSCC(=O)N[C@@H](Cc2ccccc2)C(=O)N(C)[C@@H](Cc2ccccc2)C(=O)N1C` [Example 3536] ({CH2CO}-F[NMeF][NMeNle][Sar]DV[NMeF]Y[Sar]WY[Phe(4-CH2NH2)]CG-NH2; thioether N-13), the concentration for half-maximal inhibition (IC50) in experiment [1] lay in the range of 6.76 to 30.3 nM; in experiment [2] (setting [4]), 4.78 to 72.9 nM.

Take `CCCC[C@H]1C(=O)N(C)CC(=O)N[C@@H](CC(=O)O)C(=O)N[C@@H](C(C)C)C(=O)N[C@@H](Cc2ccc(CN)cc2)C(=O)N[C@@H](Cc2ccc(O)cc2)C(=O)N(C)CC(=O)N[C@@H](Cc2c[nH]c3ccccc23)C(=O)N[C@@H](Cc2ccc(O)cc2)C(=O)N[C@@H](CC(C)C)C(=O)N[C@H](C(=O)NCC(N)=O)CSCC(=O)N[C@@H](Cc2ccccc2)C(=O)N(C)[C@@H](Cc2ccccc2)C(=O)N1C` [Example 3523] ({CH2CO}-F[NMeF][NMeNle][Sar]DV[Phe(4-CH2NH2)]Y[Sar]WYLCG-NH2; thioether N-13): the IC50 is above 30.5 nM in experiment [1] and above 74.3 nM in experiment [2] (setting [4]).

`CCCC[C@H]1C(=O)N(C)CC(=O)N[C@@H](CC(=O)O)C(=O)N[C@@H](CCC)C(=O)N(C)[C@@H](Cc2ccccc2)C(=O)N[C@@H](Cc2ccc(O)cc2)C(=O)N(C)CC(=O)N[C@@H](Cc2c[nH]c3ccccc23)C(=O)N[C@@H](Cc2ccc(O)cc2)C(=O)N[C@@H](CC(C)C)C(=O)N[C@H](C(=O)NCC(N)=O)CSCC(=O)N[C@@H](Cc2ccccc2)C(=O)N(C)[C@@H](Cc2ccccc2)C(=O)N1C` [Example 3525] (HELM PEPTIDE1{[O=C(C[*:3])[*:2]].F.[meF].[CCCC[C@@H](C(=O)[*:2])N(C)[*:1]].[Sar].D.[Nva].[meF].Y.[Sar].W.Y.L.C.G.[am]}$PEPTIDE1,PEPTIDE1,1:R3-14:R3$$$V2.0): the 50% inhibitory concentration (IC50) was above 30.5 nM in experiment [1] and above 74.3 nM in experiment [2] (setting [4]).

For the compound `CCCC[C@H]1C(=O)N(C)CC(=O)N[C@@H](CC(=O)O)C(=O)N[C@@H](C(C)C)C(=O)N(C)[C@@H](Cc2ccccc2)C(=O)N[C@@H](Cc2ccc(O)cc2)C(=O)N2CCC[C@H]2C(=O)N[C@@H](Cc2c[nH]c3ccccc23)C(=O)N[C@@H](Cc2ccc(O)cc2)C(=O)N[C@@H](CC(C)C)C(=O)N[C@H](C(=O)NCC(N)=O)CSCC(=O)N[C@@H](Cc2ccccc2)C(=O)N(C)[C@@H](Cc2ccccc2)C(=O)N1C` [Example 3069] (HELM PEPTIDE1{[O=C(C[*:3])[*:2]].F.[meF].[CCCC[C@@H](C(=O)[*:2])N(C)[*:1]].[Sar].D.V.[meF].Y.P.W.Y.L.C.G.[am]}$PEPTIDE1,PEPTIDE1,1:R3-14:R3$$$V2.0), the half-inhibitory concentration (IC50) in experiment [1] was above 30.5 nM; in experiment [2] (setting [3]) it was above 74.3 nM.

As for `CCCC[C@H]1C(=O)N(C)[C@@H](CCSC)C(=O)N[C@@H](CCCNC(=N)N)C(=O)NC(C(=O)NCC(N)=O)CSCC(=O)N[C@@H](Cc2ccc(O)cc2)C(=O)N(C)[C@@H](C)C(=O)N[C@@H](CC(N)=O)C(=O)N2CCC[C@H]2C(=O)N[C@@H](Cc2cnc[nH]2)C(=O)N[C@@H](CC(C)C)C(=O)N2CCC[C@H]2C(=O)N[C@@H](Cc2c[nH]c3ccccc23)C(=O)N[C@@H](CO)C(=O)N[C@@H](Cc2c[nH]c3ccccc23)C(=O)N1C` (some centres unmarked) [Example 9030] ({CH2CO}-Y[NMeA]NPHLPWSW[NMeNle][NMeM]R[ξC]G-NH2; thioether N-14), the IC50 was in the range of 0.385 to 6.74 nM in experiment [1] and 0.158 to 4.71 nM in experiment [2] (setting [4]).

In the case of `CC(C)C[C@@H]1NC(=O)[C@H](Cc2cnc[nH]2)NC(=O)[C@@H]2CCCN2C(=O)[C@H](CC(N)=O)NC(=O)[C@H](C)N(C)C(=O)[C@H](Cc2ccccc2)NC(=O)CSC[C@@H](C(=O)NCC(N)=O)NC(=O)[C@H](CCCNC(=N)N)NC(=O)[C@H](C)N(C)C(=O)[C@H](CCCc2ccccc2)NC(=O)[C@H](Cc2c[nH]c3ccccc23)NC(=O)[C@H](CO)NC(=O)[C@H](Cc2c[nH]c3ccccc23)NC(=O)CN(C)C1=O` [Example 1108] (HELM PEPTIDE1{[O=C(C[*:3])[*:2]].F.[meA].N.P.H.L.[Sar].W.S.W.[O=C([C@H](CCCc1ccccc1)N[*:1])[*:2]].[meA].R.C.G.[am]}$PEPTIDE1,PEPTIDE1,1:R3-15:R3$$$V2.0), the IC50 is above 30.5 nM in experiment [1] and above 74.3 nM in experiment [2] (setting [3]).

Regarding `CCCC[C@H]1C(=O)N(C)[C@@H](CCCC)C(=O)NC(CCCNC(=N)N)C(=O)N[C@H](C(=O)NCC(N)=O)CSCC(=O)N[C@@H](Cc2ccc(O)cc2)C(=O)N(C)[C@@H](C)C(=O)N[C@@H](CC(N)=O)C(=O)N2CCC[C@H]2C(=O)N[C@@H](CN)C(=O)N[C@@H](CC(C)C)C(=O)N2CCC[C@H]2C(=O)N[C@@H](Cc2c[nH]c3ccccc23)C(=O)N[C@@H](CO)C(=O)N[C@@H](Cc2c(-c3ccc(OC)cc3)[nH]c3ccccc23)C(=O)N1C` (some centres unmarked) [Example 7008] ({CH2CO}-Y[NMeA]NP[Dap]LPWS[X7][NMeNle][NMeNle][ξR]CG-NH2; thioether N-14), the IC50 in experiment [1] lay in the range of 0.385 to 6.74 nM; in experiment [2] (setting [4]), 0.158 to 4.71 nM.

In the case of `CCCC[C@H]1C(=O)N(C)[C@@H](CCCC)C(=O)N[C@@H](CCCNC(=N)N)C(=O)N[C@H](C(=O)NCC(N)=O)CSCC(=O)N[C@@H](Cc2ccccc2)C(=O)N(C)[C@@H](C)C(=O)N[C@@H](CC(N)=O)C(=O)N2CCC[C@H]2C(=O)N[C@@H](Cc2c[nH]cn2)C(=O)N[C@@H](CC(C)C)C(=O)N(C)CC(=O)N[C@@H](Cc2c[nH]c3ccccc23)C(=O)N[C@@H](CO)C(=O)N[C@@H](Cc2c[nH]cn2)C(=O)N1C` [Example 1004] ({CH2CO}-F[NMeA]NPHL[Sar]WSH[NMeNle][NMeNle]RCG-NH2; thioether N-14), the IC50 in experiment [1] is above 30.5 nM; in experiment [2] (setting [3]), above 74.3 nM.

The values are drawn from patent publication US9850283B2, “Macrocyclic inhibitors of the PD-1/PD-L1 and CD80(B7-1)/PD-L1 protein/protein interactions” (BRISTOL-MYERS SQUIBB COMPANY, priority 2013, dated 2017).
